Reference: patent publication US20230398130A1, “METHODS AND COMPOSITIONS FOR DIFFERENTIATING STEM CELLS” (Massachusetts Institute of Technology, priority 2020, published 2023)

Experiments:
[1] = tested on: ISC-enriched organoids; experiment: Primary screen, 384-well 2.5-D organoid differentiation (ENR+CD, 6 days): basal lysozyme secretion (LYZ.NS); assay type: cell-based, murine; conditions: for Dose.FC.LYZ.NS: FC vs plate median; for Z.LYZ.NS: standard z score of FC; for Dose.FC.LYZ.NS (log 2 fold change, basal lysozyme secretion): vs plate median
From the text: (§1) High-throughput screening.

[2] = tested on: ISC-enriched organoids; experiment: Primary screen, 384-well 2.5-D organoid differentiation (ENR+CD, 6 days): carbachol-induced lysozyme secretion (LYZ.S); assay type: cell-based, murine; conditions: for Dose.FC.LYZ.S: primary screen, FC vs plate median; for Dose.FC.LYZ.S (log 2 fold change, carbachol-induced lysozyme secretion): vs plate median
From the text: as §1

[3] = tested on: ISC-enriched organoids; experiment: Primary screen, 384-well 2.5-D organoid differentiation (ENR+CD, 6 days, Target Selective Inhibitor Library, vs whole-plate median): ATP (CellTiter-Glo 3D, CTG); conditions: for Dose.FC.CTG: FC vs plate median; for Z.CTG: standard z score of FC; for Dose.FC.CTG (log 2 fold change, ATP): vs plate median
[4] = dose 0.08 uM (1st of 4 lines per treatment; dose not printed in this part)
[5] = dose 0.40 uM (2nd of 4 lines per treatment; dose not printed in this part)
[6] = dose 2.00 uM (3rd of 4 lines per treatment; dose not printed in this part)
[7] = dose 10.00 uM (4th of 4 lines per treatment; dose not printed in this part)
[8] = primary screen, dose 0.08 uM, ENR+CD 6 days
[9] = primary screen, dose 0.40 uM, ENR+CD 6 days
[10] = primary screen, dose 2.00 uM, ENR+CD 6 days
[11] = primary screen, dose 10.00 uM, ENR+CD 6 days

With O=C(O)C(Cc1ccccc1[N+](=O)[O-])=NNc1nc(-c2ccc(Cl)c(Cl)c2)cs1 (mixture of isomers) [4EGI-1] the “SSMD.LYZ.NS_Rep (strictly standardized mean difference)” value [1, 4] was 0.378, the “SSMD.LYZ.NS_Rep (strictly standardized mean difference)” value [1, 5] was 0.264 and the “SSMD.LYZ.NS_Rep (strictly standardized mean difference)” value [1, 6] was 0.252. The “SSMD.LYZ.NS_Rep (strictly standardized mean difference)” value [1, 7] was −0.257, the Dose.FC.LYZ.NS [1, 8] was 0.110 log 2 fold change and the Z.LYZ.NS ([1]; primary screen, dose 0.08 uM) was 0.956. For the same molecule, the Dose.FC.LYZ.NS [1, 9] was 0.036 log 2 fold change, the Z.LYZ.NS ([1]; primary screen, dose 0.40 uM) was 0.315 and the Dose.FC.LYZ.NS [1, 10] was 0.069 log 2 fold change. For the same molecule, the Z.LYZ.NS ([1]; primary screen, dose 2.00 uM) was 0.597, the Dose.FC.LYZ.NS [1, 11] was −0.034 log 2 fold change and the Z.LYZ.NS ([1]; primary screen, dose 10.00 uM) was −0.300. For the same molecule, the “SSMD.LYZ.S_Rep (strictly standardized mean difference)” value [2, 4] was −0.264, the “Z.LYZ.S (standard z score)” value [2, 4] was −0.236 and the “SSMD.LYZ.S_Rep (strictly standardized mean difference)” value [2, 5] was 0.326. The “Z.LYZ.S (standard z score)” value [2, 5] was 0.352, the “SSMD.LYZ.S_Rep (strictly standardized mean difference)” value [2, 6] was −0.328 and the “Z.LYZ.S (standard z score)” value [2, 6] was −0.380. For the same molecule, the “SSMD.LYZ.S_Rep (strictly standardized mean difference)” value [2, 7] was 0.189, the “Z.LYZ.S (standard z score)” value [2, 7] was 0.366 and the Dose.FC.LYZ.S ([2]; dose 0.08 uM, ENR+CD 6 days) was −0.037 log 2 fold change. It also gave a Dose.FC.LYZ.S ([2]; dose 0.40 uM, ENR+CD 6 days) of 0.054 log 2 fold change, a Dose.FC.LYZ.S ([2]; dose 2.00 uM, ENR+CD 6 days) of −0.059 log 2 fold change and a Dose.FC.LYZ.S ([2]; dose 10.00 uM, ENR+CD 6 days) of 0.057 log 2 fold change. The “SSMD.CTG_Rep (strictly standardized mean difference)” value [3, 4] was −0.352, the “SSMD.CTG_Rep (strictly standardized mean difference)” value [3, 5] was −0.158 and the “SSMD.CTG_Rep (strictly standardized mean difference)” value [3, 6] was 0.407. For the same molecule, the “SSMD.CTG_Rep (strictly standardized mean difference)” value [3, 7] was −0.283, the Dose.FC.CTG [3, 8] was −0.160 log 2 fold change and the Z.CTG ([3]; primary screen, dose 0.08 uM) was −0.383. The Dose.FC.CTG [3, 9] was −0.131 log 2 fold change, the Z.CTG ([3]; primary screen, dose 0.40 uM) was −0.314 and the Dose.FC.CTG [3, 10] was 0.127 log 2 fold change. The Z.CTG ([3]; primary screen, dose 2.00 uM) was 0.304, the Dose.FC.CTG [3, 11] was −0.109 log 2 fold change and the Z.CTG ([3]; primary screen, dose 10.00 uM) was −0.261.

CC(=O)c1cc([N+](=O)[O-])c(Sc2ccc(F)cc2F)s1 [P22077] showed a Dose.FC.LYZ.NS ([1]; Dose 0.08 uM, primary screen) of 0.039 log 2 fold change, a Z.LYZ.NS ([1]; Dose 0.08 uM) of 0.338 and a Dose.FC.LYZ.NS ([1]; Dose 0.40 uM, primary screen) of −0.005 log 2 fold change. The Z.LYZ.NS ([1]; Dose 0.40 uM) was −0.041, the Dose.FC.LYZ.NS ([1]; Dose 2.00 uM, primary screen) was 0.028 log 2 fold change and the Z.LYZ.NS ([1]; Dose 2.00 uM) was 0.248. For the same molecule, the Dose.FC.LYZ.NS ([1]; Dose 10.00 uM, primary screen) was −0.056 log 2 fold change, the Z.LYZ.NS ([1]; Dose 10.00 uM) was −0.487 and the Dose.FC.LYZ.S ([2]; Dose 0.08 uM) was −0.182 log 2 fold change. It also gave a Dose.FC.LYZ.S ([2]; Dose 0.40 uM) of 0.065 log 2 fold change, a Dose.FC.LYZ.S ([2]; Dose 2.00 uM) of −0.007 log 2 fold change and a Dose.FC.LYZ.S ([2]; Dose 10.00 uM) of −0.063 log 2 fold change. The Dose.FC.CTG ([3]; Dose 0.08 uM, primary screen) was −0.216 log 2 fold change, the Z.CTG ([3]; Dose 0.08 uM) was −0.516 and the Dose.FC.CTG ([3]; Dose 0.40 uM, primary screen) was 0.049 log 2 fold change. For the same molecule, the Z.CTG ([3]; Dose 0.40 uM) was 0.117, the Dose.FC.CTG ([3]; Dose 2.00 uM, primary screen) was −0.134 log 2 fold change and the Z.CTG ([3]; Dose 2.00 uM) was −0.320. For the same molecule, the Dose.FC.CTG ([3]; Dose 10.00 uM, primary screen) was −0.130 log 2 fold change and the Z.CTG ([3]; Dose 10.00 uM) was −0.311.

In the case of CCCS(=O)(=O)Nc1ccc(F)c(C(=O)c2c[nH]c3ncc(-c4ccc(Cl)cc4)cc23)c1F [Vemurafenib (PLX4032, RG7204)], the “Z.LYZ.NS (standard z score)” value ([1]; dose 0.08 uM) was 0.786, the “Dose.FC.LYZ.NS (log 2 fold change, basal lysozyme secretion)” value ([1]; dose 0.08 uM) was 0.090 and the “Z.LYZ.NS (standard z score)” value ([1]; dose 0.40 uM) was 0.462. The “Dose.FC.LYZ.NS (log 2 fold change, basal lysozyme secretion)” value ([1]; dose 0.40 uM) was 0.053, the “Z.LYZ.NS (standard z score)” value ([1]; dose 2.00 uM) was 0.411 and the “Dose.FC.LYZ.NS (log 2 fold change, basal lysozyme secretion)” value ([1]; dose 2.00 uM) was 0.047. For the same molecule, the “Z.LYZ.NS (standard z score)” value ([1]; dose 10.00 uM) was 0.263, the “Dose.FC.LYZ.NS (log 2 fold change, basal lysozyme secretion)” value ([1]; dose 10.00 uM) was 0.030 and the “Dose.FC.LYZ.S (log 2 fold change, carbachol-induced lysozyme secretion)” value ([2]; dose 0.08 uM) was 0.120. The “Dose.FC.LYZ.S (log 2 fold change, carbachol-induced lysozyme secretion)” value ([2]; dose 0.40 uM) was 0.150, the “Dose.FC.LYZ.S (log 2 fold change, carbachol-induced lysozyme secretion)” value ([2]; dose 2.00 uM) was 0.055 and the “Dose.FC.LYZ.S (log 2 fold change, carbachol-induced lysozyme secretion)” value ([2]; dose 10.00 uM) was 0.022. The “Z.CTG (standard z score)” value ([3]; dose 0.08 uM) was 0.297, the “Dose.FC.CTG (log 2 fold change, ATP)” value ([3]; dose 0.08 uM) was 0.124 and the “Z.CTG (standard z score)” value ([3]; dose 0.40 uM) was −0.195. For the same molecule, the “Dose.FC.CTG (log 2 fold change, ATP)” value ([3]; dose 0.40 uM) was −0.082, the “Z.CTG (standard z score)” value ([3]; dose 2.00 uM) was −0.014 and the “Dose.FC.CTG (log 2 fold change, ATP)” value ([3]; dose 2.00 uM) was −0.006. The “Z.CTG (standard z score)” value ([3]; dose 10.00 uM) was 0.073 and the “Dose.FC.CTG (log 2 fold change, ATP)” value ([3]; dose 10.00 uM) was 0.030.
